Series [1] in a line: Cytotoxicity assay (MTT) on NHDF. Format: cell-based, human. The conditions noted are these: human, NHDF cells (non-tumor human dermal fibroblasts), 30 µM, 72 h, MTT; read-out: Cytotoxicity (% cell viability at 30 µM) NHDF. On the procedure:
(§1) XO inhibitory and antioxidant assays were performed in triplicate while antiproliferative assay was conducted in quadruplicate. For each assay, at least two independent experiments were performed. An initial screening at the concentration of 30 μM for all compounds under study was performed in each in vitro study. A second screening at 5 μM was performed for compounds that originated an inhibitory potential higher than 80% for the XO activity at 30 μM. Half-maximal inhibitory concentration (IC50) studies were performed for drugs used as a reference and for the most promising bis-thiobarbiturate in XO inhibitory, antioxidant, and cytotoxicity assays.
(§2) The cytotoxic potential of the compounds being studied was evaluated by quantifying the extent of the reduction of 3-(4,5-dimethylthiazol-2-yl)-2,5-diphenyltetrazolium bromide (MTT, VWR, Radnor, PA, USA) on tumor cell lines of the colon (Caco-2) and breast (MCF-7) adenocarcinoma and non-tumor human dermal fibroblasts (NHDF). All cell lines were obtained from the American Type Culture Collection (ATCC, Manassas, VA, USA) and were maintained in 75 cm^2 culture flasks in a humidified air incubator with 5% CO2 at 37 °C. NHDF cells have grown in RPMI 1640 medium (Sigma-Aldrich, St. Louis, MO, USA) supplemented with 10% fetal bovine serum (FBS), 10 mM 4-(2-hydroxyethyl)-1-piperazineethanesulfonic acid (HEPES), 2 mM L-glutamine, 1 mM sodium pyruvate, and 1% antibiotic/antimycotic (Ab: 10,000 units/mL penicillin G, […] streptomycin and 25 μg/mL amphotericin B). MCF-7 cells were cultured in high-glucose Dulbecco’s modified Eagle medium (DMEM, Sigma-Aldrich, St. Louis, MO, USA) supplemented with 10% FBS, and 1% Ab. The Caco-2 cell line was cultured in a high glucose DMEM supplemented with 20% FBS and 1% of the antibiotic mixture (Sp: 10,000 units/mL penicillin G and […] of streptomycin). For the assay, cells were seeded in 96-well plates (2 × 10^4 cells/mL) in the culture medium. After 48 h of adherence, cells were treated with the test solutions and incubated for 72 h. […] Untreated cells were used as a negative control and 5-FU as the positive control. Following incubation, the medium was removed and replaced with a fresh incomplete culture medium (without FBS and Ab or Sp) and MTT solution [5 mg/mL in phosphate buffer saline (PBS)]. After further incubation for 4 h at 37 °C, the medium with MTT was removed, formazan crystals were dissolved in DMSO, and the absorbance was read at 570 nm. Results were expressed as the relative cell proliferation in comparison with the negative control cells.
(§3) All in vitro results are expressed as mean values ± standard deviation (SD) of at least two independent determinations. The difference between groups was analyzed for each assay by Student’s t-test. The IC50 values were calculated by sigmoidal fitting analysis considering a 95% confidence interval.

The nature of series [2]: Cytotoxicity/antiproliferative assay (MTT) on Caco-2. Format: cell-based. The conditions noted are these: human, read-out: Cytotoxicity (% cell viability at 30 µM) Caco-2. As to the method: as §1, §2, §3
Series [3] can be described thus: Cytotoxicity/antiproliferative assay (MTT) on MCF-7. The format is cell-based. The conditions noted are these: human, MCF-7 cells (breast adenocarcinoma), read-out: Cytotoxicity (% cell viability at 30 µM) MCF-7. On the procedure: as §1, §2, §3
For a further series, the target named is T1, Xanthine oxidase (XO) (Bos taurus, UniProt P80457).
T1 construct: purchased Sigma-Aldrich X4875
Kind of series: XO inhibitory assay (spectrophotometric quantification of uric acid formation at 295 nm). Format: biochemical. The conditions noted are these: read-out: XO inhibition (%). As to the method:
XO inhibitory and antioxidant assays were performed in triplicate while antiproliferative assay was conducted in quadruplicate. For each assay, at least two independent experiments were performed. An initial screening at the concentration of 30 μM for all compounds under study was performed in each in vitro study. […] Half-maximal inhibitory concentration (IC50) studies were performed for drugs used as a reference and for the most promising bis-thiobarbiturate in XO inhibitory, antioxidant, and cytotoxicity assays.
The XO inhibitory activity was evaluated by spectrophotometric quantification of uric acid formation. The 50 mM dihydrogen phosphate buffer (pH 7.4) was used to dilute all solutions. For each assay performed, 50 μL of the test solution and 50 μL of the 0.1 U/mL XO (Sigma-Aldrich X4875, St. Louis, MO, USA) solution were added in each well of an Elisa microplate (96 wells) followed by 5 min of incubation at 37 °C. […] The reaction started with the addition of 150 μL of a xanthine solution (420 μM). The absorbance was recorded at a wavelength of 295 nm every minute for 10 min. To obtain only the absorbance associated with uric acid, a solution consisting of 50 μL of the test solution, 150 μL of the xanthine solution, and 50 μL of buffer were used as blank. […] For each compound, the percentage of enzyme inhibition was calculated according to the following formula:% of XO inhibition = [1 − (ABSsample − ABSblank of sample)/ABSnegative control] × 100
as §3

Series [4] is described as follows: Antioxidant assay, DPPH method. The conditions noted are these: 60 min. On the procedure: as §1
Antioxidant potential was spectrophotometrically evaluated by the 2,2-diphenyl-1-picrylhydrazyl (DPPH, Sigma-Aldrich, St. Louis, MO, USA) method. All solutions and dilutions were prepared in 99.5% ethanol before each experiment. For each assay, 100 μL of the test solution and 100 μL of DPPH solution (0.2 mM) were added to each well of a 96 wells Elisa microplate. […] After 60 min of incubation in dark at rt, the capacity of each compound to reduce DPPH was followed by measuring the absorbance at 517 nm. Ethanol was used as a negative control and Trolox as the positive control. To discount the absorbance of each compound at 517 nm, a blank was performed with 100 μL of each test compound and 100 μL of ethanol. The antioxidant capacity of each sample was calculated according to the following formula:% DPPH scavenging = [1 − (ABSsample − ABSblank of sample)/ABSnegative control] × 100
as §3

T1 sequence (P80457 whole entry): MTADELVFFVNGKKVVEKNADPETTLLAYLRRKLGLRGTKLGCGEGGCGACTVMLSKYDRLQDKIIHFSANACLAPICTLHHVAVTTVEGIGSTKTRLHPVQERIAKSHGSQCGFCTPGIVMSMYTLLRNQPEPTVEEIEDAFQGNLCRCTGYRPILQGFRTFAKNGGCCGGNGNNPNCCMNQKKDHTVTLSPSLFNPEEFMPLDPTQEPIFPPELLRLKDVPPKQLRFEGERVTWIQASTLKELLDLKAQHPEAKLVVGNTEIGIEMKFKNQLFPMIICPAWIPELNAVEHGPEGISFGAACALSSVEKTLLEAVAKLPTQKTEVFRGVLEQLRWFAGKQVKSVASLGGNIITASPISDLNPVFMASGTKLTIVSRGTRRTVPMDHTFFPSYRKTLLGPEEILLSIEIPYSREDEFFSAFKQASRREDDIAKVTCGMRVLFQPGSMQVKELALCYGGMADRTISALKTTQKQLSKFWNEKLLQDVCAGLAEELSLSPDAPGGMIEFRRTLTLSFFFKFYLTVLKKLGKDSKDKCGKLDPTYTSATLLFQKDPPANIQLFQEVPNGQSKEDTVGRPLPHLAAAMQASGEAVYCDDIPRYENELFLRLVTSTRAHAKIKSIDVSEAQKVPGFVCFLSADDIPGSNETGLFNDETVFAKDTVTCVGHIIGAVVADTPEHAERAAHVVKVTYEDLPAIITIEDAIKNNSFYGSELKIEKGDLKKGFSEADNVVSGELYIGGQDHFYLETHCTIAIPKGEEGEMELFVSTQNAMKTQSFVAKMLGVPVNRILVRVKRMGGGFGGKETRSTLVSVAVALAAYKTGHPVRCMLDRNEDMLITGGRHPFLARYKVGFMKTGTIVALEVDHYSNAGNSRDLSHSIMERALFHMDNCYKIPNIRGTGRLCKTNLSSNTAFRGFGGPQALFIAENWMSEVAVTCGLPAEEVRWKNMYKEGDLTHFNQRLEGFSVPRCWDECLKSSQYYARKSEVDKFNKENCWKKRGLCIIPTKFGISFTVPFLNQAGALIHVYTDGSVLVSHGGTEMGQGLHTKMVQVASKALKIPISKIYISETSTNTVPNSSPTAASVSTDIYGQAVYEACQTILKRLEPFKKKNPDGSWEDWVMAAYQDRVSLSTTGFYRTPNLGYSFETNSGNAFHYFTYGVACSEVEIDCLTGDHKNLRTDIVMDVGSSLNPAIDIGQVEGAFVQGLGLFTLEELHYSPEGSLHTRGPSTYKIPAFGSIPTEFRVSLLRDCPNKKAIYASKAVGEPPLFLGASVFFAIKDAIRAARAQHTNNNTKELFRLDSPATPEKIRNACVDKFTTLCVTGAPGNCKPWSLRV

Broadly, the viability is the share of living cells, or the viability signal relative to a control. Consider `O=c1[nH]cc(F)c(=O)[nH]1` [Compound 5-FU, 5-fluorouracil, reference compound], for which the viability at 72 h, 30 µM in series [1] worked out at 20.9 ± 0.83%; in series [2] it was 37.1 ± 1.51%; in series [3] it was 45.9 ± 4.72%.
By inhibition is commonly meant the percentage by which the read-out fell short of the control. Broadly, the melting point is the temperature, or range, at which the solid turns liquid. For the compound `CCn1c(O)c(C(c2ccc(NC(C)=O)cc2)c2c(O)n(CC)c(=S)n(CC)c2=O)c(=O)n(CC)c1=S` [Compound 9, N-(4-(Bis(1,3-diethyl-6-hydroxy-4-oxo-2-thioxo-1,2,3,4-tetrahydropyrimidin-5-yl)methyl)phenyl)acetamide], the melting point fell in the range of 178 to 179 °C. The inhibition at 30 µM at Xanthine oxidase (XO) is 45.6%. The “DPPH (% scavenging at 30 µM)” value in series [4] stood at 39.63 ± 2.26%. For the same compound, in series [1], the viability at 72 h, 30 µM was 81.3 ± 8.87%. In addition, in series [2], the viability at 72 h, 30 µM worked out at 67.5 ± 9.4%. The viability at 72 h, 30 µM in series [3] is 90.2 ± 5.7%.
`CCn1c(O)c(C(c2cccnc2)c2c(O)n(CC)c(=S)n(CC)c2=O)c(=O)n(CC)c1=S` [Compound 19, 5,5′-(Pyridin-3-ylmethylene)bis(1,3-diethyl-6-hydroxy-2-thioxo-2,3-dihydropyrimidin-4(1H)-one)] showed a melting point of 253 to 254 °C. For the same compound, at Xanthine oxidase (XO), the inhibition at 5 µM came to 67.3 ± 1.27% and the inhibition at 30 µM turned out to be 91.7 ± 1.87%. Further, the “DPPH (% scavenging at 30 µM)” value in series [4] came to 3.83 ± 2.44%. The viability at 72 h, 30 µM in series [1] was 81 ± 3.57%. For the same compound, in series [2], the viability at 72 h, 30 µM amounted to 80.7 ± 13%. Further, the viability at 72 h, 30 µM in series [3] is 93.7 ± 5.68%.
The compound `CCn1c(O)c(C(c2ccc([N+](=O)[O-])cc2)c2c(O)n(CC)c(=S)n(CC)c2=O)c(=O)n(CC)c1=S` [Compound 6, 5,5′-((4-Nitrophenyl)methylene)bis(1,3-diethyl-6-hydroxy-2-thioxo-2,3-dihydropirimidin-4(1H)-one)] yielded a melting point of 202 to 204 °C. In addition, on Xanthine oxidase (XO), the inhibition at 5 µM was 56.8% and the inhibition at 30 µM came out at 92.2%. In addition, the “DPPH (% scavenging at 30 µM)” value in series [4] amounted to 34.99 ± 1.32%. In addition, in series [1], the viability at 72 h, 30 µM worked out at 99.8 ± 5.43%. The viability at 72 h, 30 µM in series [2] was determined as 100 ± 4.45%. In series [3], the viability at 72 h, 30 µM turned out to be 91.7 ± 1.48%.
`CCn1c(O)c(C(c2ccc(N(C)C)cc2[N+](=O)[O-])c2c(O)n(CC)c(=S)n(CC)c2=O)c(=O)n(CC)c1=S` [Compound 14, 5,5′-((4-(Dimethylamino)-2-nitrophenyl)methylene)bis(1,3-diethyl-6-hydroxy-2-thioxo-2,3-dihydropyrimidin-4(1H)-one)]: the melting point fell in the range of 143 to 145 °C. Besides, on Xanthine oxidase (XO), the inhibition at 5 µM was 56.3 ± 1.21% and the inhibition at 30 µM was found to be 90.7 ± 0.71%. For the same compound, the “DPPH (% scavenging at 30 µM)” value in series [4] is 28.04 ± 0.25%. The viability at 72 h, 30 µM in series [1] came to 80.1 ± 7.69%. Moreover, the viability at 72 h, 30 µM in series [2] came to 97.2 ± 2.97%. For the same compound, the viability at 72 h, 30 µM in series [3] is 88.1 ± 3.25%.
In turn, `CCn1c(O)c(C(c2cc(O)ccc2[N+](=O)[O-])c2c(O)n(CC)c(=S)n(CC)c2=O)c(=O)n(CC)c1=S` [Compound 16, 5,5′-((5-Hydroxy-2-nitrophenyl)methylene)bis(1,3-diethyl-6-hydroxy-2-thioxo-2,3-dihydropyrimidin-4(1H)-one)] came in with a melting point of 167 to 169 °C. For the same compound, the inhibition at 30 µM at Xanthine oxidase (XO) stood at 61.4%. For the same compound, in series [4], the “DPPH (% scavenging at 30 µM)” value turned out to be 31.35 ± 0.91%. Further, the viability at 72 h, 30 µM in series [1] worked out at 60.7 ± 1.72%. Also, in series [2], the viability at 72 h, 30 µM stood at 95.4 ± 3.3%. In addition, the viability at 72 h, 30 µM in series [3] was 91.1 ± 2%.
As to `CCn1c(O)c(C(c2ccc(OC)cc2)c2c(O)n(CC)c(=S)n(CC)c2=O)c(=O)n(CC)c1=S` [Compound 10, 5,5′-((4-Methoxyphenyl)methylene)bis(1,3-diethyl-6-hydroxy-2-thioxo-2,3-dihydropyrimidin-4(1H)-one)], the melting point lay within 139 to 140 °C. Besides, on Xanthine oxidase (XO), the inhibition at 30 µM is 23.5%. For the same compound, the “DPPH (% scavenging at 30 µM)” value in series [4] was 38.12 ± 1.56%. Also, the viability at 72 h, 30 µM in series [2] worked out at 62.6 ± 7.74%. The viability at 72 h, 30 µM in series [3] amounted to 100 ± 13%.
For `Cc1nc(-c2ccc(OCC(C)C)c(C#N)c2)sc1C(=O)O` [Febuxostat, febuxostat, reference compound], at Xanthine oxidase (XO), the inhibition at 5 µM amounted to 93.9 ± 2.84% and the inhibition at 30 µM worked out at 95%.
For the compound `CCn1c(O)c(C(c2ccc(C)cc2)c2c(O)n(CC)c(=S)n(CC)c2=O)c(=O)n(CC)c1=S` [Compound 4, 5,5′-(p-Tolymethylene)bis(1,3-diethyl-6-hydroxy-2-thioxo-2,3-dihydropyrimidin-4(1H)-one)], the melting point is 163 to 164 °C. For the same compound, the inhibition at 30 µM at Xanthine oxidase (XO) was found to be 36.5%. Also, in series [4], the “DPPH (% scavenging at 30 µM)” value is 42.64 ± 0.81%. Further, in series [1], the viability at 72 h, 30 µM is 95.6 ± 7.26%. Besides, in series [2], the viability at 72 h, 30 µM came to 98.6 ± 5.7%. Moreover, in series [3], the viability at 72 h, 30 µM came to 90.6 ± 3.92%.
Regarding `CCn1c(O)c(C(c2cc3c(cc2[N+](=O)[O-])OCO3)c2c(O)n(CC)c(=S)n(CC)c2=O)c(=O)n(CC)c1=S` [Compound 17, 5,5′-((6-Nitrobenzo[d][1,3]dioxol-5-yl)methylene)bis(1,3-diethyl-6-hydroxy-2-thioxo-2,3-dihydropyrimidin-4(1H)-one)], the melting point fell in the range of 148 to 149 °C. At Xanthine oxidase (XO), the inhibition at 5 µM was found to be 55.2 ± 1.63% and the inhibition at 30 µM was 90.8 ± 2.87%. The “DPPH (% scavenging at 30 µM)” value in series [4] came to 40.90 ± 0.65%. For the same compound, the viability at 72 h, 30 µM in series [1] stood at 68.9 ± 9.33%. In series [2], the viability at 72 h, 30 µM stood at 88.7 ± 7.85%. The viability at 72 h, 30 µM in series [3] was 86.6 ± 5.87%.
With `Oc1ncnc2[nH]ncc12` [Allo, allopurinol, reference compound], at Xanthine oxidase (XO), the inhibition at 5 µM amounted to 26.9 ± 0.82% and the inhibition at 30 µM turned out to be 88.5%. Moreover, in series [4], the “DPPH (% scavenging at 30 µM)” value is listed as 0.48 ± 0.21%.
For `O=c1[nH]c(O)c(C(c2ccc([N+](=O)[O-])cc2)c2c(O)[nH]c(=O)[nH]c2=O)c(=O)[nH]1`, the melting point is 227 °C (dec.).
As usually defined, the IC50 is the concentration that inhibits the measured activity by half. In the case of `Cc1c(C)c2c(c(C)c1O)CCC(C)(C(=O)O)O2` (centres unmarked) [Trolox, reference compound], the “DPPH (% scavenging at 30 µM)” value in series [4] stood at 54.86 ± 0.98%. In addition, the IC50 in series [4] (read-out: DPPH Scavenging IC50) stood at 23.8 ± 2.13 µM.

(Values after article PMC8533253, “Bis-thiobarbiturates as Promising Xanthine Oxidase Inhibitors: Synthesis and Biological Evaluation” (Biomedicines, 2021).)
